These results are taken from patent publication US7858647B2, “N-[1,3,4]-thiadiazol-2-yl-benzene sulfonamides, pharmaceutical compositions thereof and methods for their therapeutic use” (Sanofi-Aventis, priority 2005, dated 2010).

One test addresses T1, human PPARdelta (Homo sapiens, UniProt Q03181).
T1 construct: amino acids S139-Y441; expressed in transfected cells
T1 sequence (Q03181 139-441): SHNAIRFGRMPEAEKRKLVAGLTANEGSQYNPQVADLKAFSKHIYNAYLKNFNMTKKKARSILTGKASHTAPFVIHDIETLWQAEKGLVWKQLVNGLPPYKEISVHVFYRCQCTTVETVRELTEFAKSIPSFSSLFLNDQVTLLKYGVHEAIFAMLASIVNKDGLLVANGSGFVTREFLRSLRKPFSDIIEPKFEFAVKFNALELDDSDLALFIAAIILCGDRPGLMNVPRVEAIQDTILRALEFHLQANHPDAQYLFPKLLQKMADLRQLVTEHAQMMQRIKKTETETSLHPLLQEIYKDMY
Description: Cellular PPARdelta assay (luciferase reporter, stably transfected HEK cell line). The format is cell-based. The note with it: GR-GAL4-humanPPARdelta-LBD. The method, then:
The activity of PPARalpha agonists is determined in a 3-day assay which is described below:
The PPARalpha reporter cell line is cultivated to 80% confluence in DMEM (#41965-039, Invitrogen) which is mixed with the following additions: 10% cs-FCS (fetal calf serum; #SH-30068.03, Hyclone), 0.5 mg/ml zeocin (#R250-01, Invitrogen), 0.5 mg/ml G418 (#10131-027, Invitrogen), 1% penicillin-streptomycin solution (#15140-122, Invitrogen) and 2 mM L-glutamine (#25030-024, Invitrogen). The cultivation takes place in standard cell culture bottles (#353112, Becton Dickinson) in a cell culture incubator at 37° C. in the presence of 5% CO2. The 80%-confluent cells are washed once with 15 ml of PBS (#14190-094, Invitrogen), treated with 3 ml of trypsin solution (#25300-054, Invitrogen) at 37° C. for 2 min, taken up in 5 ml of the DMEM described and counted in a cell counter. After dilution to 500.000 cells/ml, 35,000 cells are seeded in each well of a 96 well microtiter plate with a clear plastic base (#3610, Corning Costar). The plates are incubated in the cell culture incubator at 37° C. and 5% CO2 for 24 h.
PPARalpha Agonists to be Tested are Dissolved in DMSO in a Concentration of 10 mM. This stock solution is diluted in DMEM (#41965-039, Invitrogen) which is mixed with 5% cs-FCS (#SH-30068.03, Hyclone), 2 mM L-glutamine (#25030-024, Invitrogen) and the previously described antibiotics (zeocin, G418, penicillin and streptomycin). Test substances are tested in 11 different concentrations in the range from 10 μM to 100 pM.
The medium of the PPARalpha reporter cell line seeded on day 1 is completely removed by aspiration, and the test substances diluted in medium are immediately added to the cells. The dilution and addition of the substances is carried out by a robot (Beckman FX). The final volume of the test substances diluted in medium is 100 μl per well of a 96 well microtiter plate. The DMSO concentration in the assay is less than 0.1% v/v in order to avoid cytotoxic effects of the solvent.
The assay plates are incubated in an incubator at 37° C. and 5% CO2 for 24 h.
The PPARalpha reporter cells treated with the test substances are removed from the incubator, and the medium is aspirated off. The cells are lyzed by pipetting 50 μl of Bright Glo reagent (from Promega) into each well of a 96 well microtiter plate. After incubation at room temperature in the dark for 10 minutes, the microtiter plates are measured in the luminometer (Trilux from Wallac). The measuring time for each well of a microtiter plate is 1 sec.
The raw data from the luminometer are transferred into a Microsoft Excel file. Dose-effect plots and EC50 values of PPAR agonists are calculated using the XL.Fit program as specified by the manufacturer (IDBS).
The potency of substances which bind to human PPARdelta and activate it in an agonistic manner is analyzed using a stably transfected HEK cell line (HEK=human embryo kidney) which is referred to here as PPARdelta reporter cell line. In analogy to the assay described for PPARalpha, the PPARdelta reporter cell line also contains two genetic elements, a luciferase reporter element (pdeltaM-GAL4-Luc-Zeo) and a PPARdelta fusion protein (GR-GAL4-humanPPARdelta-LBD) which mediates expression of the luciferase reporter element depending on a PPARdelta ligand. The stably and constitutively expressed fusion protein GR-GAL4-humanPPARdelta-LBD binds in the cell nucleus of the PPARdelta reporter cell line via the GAL4 protein portion to the GAL4 DNA binding motifs 5′-upstream of the luciferase reporter element which is stably integrated in the genome of the cell line. There is only little expression of the luciferase reporter gene in the absence of a PPARdelta ligand if fatty acid-depleted fetal calf serum (cs-FCS) is used in the assay. PPARdelta ligands bind and activate the PPARdelta fusion protein and thereby stimulate expression of the luciferase reporter gene. […]
Background: In a reporter assay the amount or activity of a reporter protein is the signal.

The conditions of test [1]: obese, insulin resistant rhesus monkeys, cited from earlier work.
The conditions of test [2]: rhesus monkeys; cited from earlier work.
The conditions of test [3]: cynomolgus monkeys; cited from earlier work.
For test [4] the following is noted: two weeks clinical trials in healthy volunteers; cited from earlier work.
For test [5] the following is noted: diabetic animal model; cited from earlier work.

Like-named read-outs stand apart in the source and are kept apart here.

Turning to `CCOc1cc(C(F)(F)F)ccc1C(=O)NCCc1ccc(S(=O)(=O)Nc2nnc(C(C)C)s2)cc1` [Example 16, 2-Ethoxy-N-{2-[4-(5-isopropyl-[1,3,4]thiadiazol-2-ylsulfamoyl)-phenyl]-ethyl}-4-trifluoromethyl-benzamide], a half-maximal effect at human PPARdelta (EC50) was put at 46 nM.
Consider `Cc1cc(SCc2sc(-c3ccc(C(F)(F)F)cc3)nc2C)ccc1OCC(=O)O` [GW501516], for which, in test [1] (plasma), the insulin levels result is listed as “decreases” and the triglycerides entry is on record as “decreases”. Besides, in test [1], the HDL-cholesterol entry is “raises” and the “plasma LDL-cholesterol” value is listed as “decreases”.
Take `CCCc1c(OCCCSc2nnc(SCC(=O)O)s2)ccc(C(C)=O)c1O` [YM-16638]: the figures for the plasma lipids entry in test [2], in test [3] and in test [4] were “significantly lowers”, “significantly lowers” and “acts in a similar manner”, respectively.
Regarding `CCCc1c(OCCCOc2ccc(OCC(=O)O)cc2)ccc(C(C)=O)c1O` [Example L-165041], the plasma cholesterol entry in test [5] is listed as “raises”.
